Results from patent US12640239B2, “Functional biomarkers for statin therapy in age-related macular degeneration (AMD)” (APELIOTUS TECHNOLOGIES, INC., priority 2017, dated 2026).

Key:
[1] = tested on: AMD patients; conditions: high-dose atorvastatin; Vavvas et al., 2016; cited from earlier work
[2] = tested on: AMD patients; assay: Visual acuity, standard Snellen or ETDRS eye chart; assay type: in vivo, human
Description: (§1) Table 2 provides detailed information regarding patients 1 to 7, including the baseline diagnosis (diagnosis made when starting statin therapy), ending diagnosis (the diagnosis made on the date of the last referenced evaluation), the results of evaluations performed on each patient, and whether the patient responded to statin therapy. The dark adaptation data in this Example is the rod intercept time (or RI time) reported in minutes. In this Example, the dark adaptation data was collected using the AdaptDx® Dark Adaptometer (MacuLogix, Middletown, PA) running its standard Extended Test protocol. […] Data is automatically analyzed by the AdaptDx Dark Adaptometer to provide an RI time based on recovery to a criterion sensitivity level of 5×10^−3 scotopic cd/m^2. […] The visual acuity data was collected using a standard Snellen or ETDRS eye chart with the results presented using the standard 20/20 vision scale. Drusen resolution was determined by evaluation of fundus and OCT imaging by qualified clinicians experienced in AMD evaluation. Fundus and OCT imaging data was collected using the Heidelberg Engineering Spectralis® SD-OCT (Heidelberg, Germany) or the Karl Zeiss Meditec Cirrus® HD-OCT (Jena, Germany), in both cases running standard protocols with automated data analysis performed by the instruments.

[3] = tested on: AMD patients; assay: Clinical assessment of AMD diagnosis and response to statin therapy; assay type: in vivo, human
Description: AMD status has been determined in the art using a number of recognized grading systems, such as the Beckman AMD Classification System, the Age-Related Eye Disease Study (AREDS) Severity Scale, the AREDS Simplified Severity Scale, the International Classification and Grading System for AMD, and the Wisconsin Age-Related Maculopathy Grading System. When a determination of AMD status is required for a subject, the determination of AMD status is made using the Beckman AMD Classification System (Ferris et al. Ophthalmology 2013; 120:844-851).
as §1
(§2) The baseline diagnosis and ending diagnosis are the result of clinical assessment by qualified clinicians experienced in evaluation of AMD patients. The clinical assessment was carried out utilizing standard ophthalmic testing, such as, but not limited to, slit-lamp biomicroscopy (including looking for evidence of drusen and pigmentary changes), fundus and OCT imaging (including looking for evidence of drusen and pigmentary changes and calculation of retinal volume and retinal thickness), and testing with a Snellen or ETDRS eye chart (including looking for visual acuity changes that might indicate a change in disease status). Dark adaptation results were not used in the clinical assessment of the baseline or ending diagnosis.
Patients 1, 3-5 and 7 were determined to be non-responders to statin treatment as the initial diagnosis was unchanged after treatment and clinical evaluation. […] For patient 2, RI time improved by 1.67 minutes OD and 2.60 minutes OS agreeing with the clinical assessment of a response to statin therapy (i.e., improving clinically). Patient 6 could not be clearly classified as a responder or non-responder to statin treatment. […] For patient 6, RI time decreased by 2.2 minutes OD, agreeing with the initial clinical signs of a response to statin therapy.

[4] = tested on: AMD patients; assay: Fundus and OCT imaging: drusen resolution, retinal thickness and volume; assay type: in vivo, human; conditions: for Average retinal thickness / Average total volume (retina) / Retinal thickness, maximum / Retinal thickness, minimum: Patient 2, atorvastatin 80 mg/day; for OCT retinal imaging finding: Patient 5, atorvastatin 80 then 20 mg/day, April 2018 vs January 2014
Description: (§3) The patient was asked to report any perceived changes in visual function during the course of the treatment. […] The self-reported improvement was confirmed at months 15 and 22 of treatment. […] The resolution of the drusen was confirmed by fundus photography and optical coherence tomography (OCT) imaging.
as §1, §2

[5] = tested on: patient having intermediate AMD; assay: Patient self-report of perceived changes in visual function during statin treatment; assay type: in vivo, human
Description: The patient was asked to report any perceived changes in visual function during the course of the treatment.
as §3

[6] = Patient #5, atorvastatin 80 mg/day from January 2014, OD, month 0 (January 2014), baseline
[7] = Patient #5, atorvastatin 80 mg/day from January 2014, OS, month 0 (January 2014), baseline

Compound: CC(C)c1c(C(=O)Nc2ccccc2)c(-c2ccccc2)c(-c2ccc(F)cc2)n1CC[C@@H](O)C[C@@H](O)CC(=O)O [atorvastatin]
- Patients treated with disappearance of drusen deposits and improvement in vision [1]: 43%
- VA (visual acuity) ([2]; Patient #1, atorvastatin 20 to 80 mg/day, OD, month 0 (July 2013), baseline): VA 20/25
- VA (visual acuity) ([2]; Patient #1, atorvastatin 20 to 80 mg/day, OD, month 59 (June 2018)): VA 20/25
- VA (visual acuity) ([2]; Patient #1, atorvastatin 20 to 80 mg/day, OS, month 0 (July 2013), baseline): VA 20/32
- VA (visual acuity) ([2]; Patient #1, atorvastatin 20 to 80 mg/day, OS, month 59 (June 2018)): VA 20/25
- VA (visual acuity) ([2]; Patient #2, atorvastatin 80 mg/day, OD, month 64 (May 2018)): VA 20/30
- VA (visual acuity) ([2]; Patient #2, atorvastatin 80 mg/day, OS, month 64 (May 2018)): VA 20/20
- VA (visual acuity) ([2]; Patient #4, atorvastatin 80 mg/day, OD, month 0 (May 2018), baseline): VA 20/200
- VA (visual acuity) ([2]; Patient #4, atorvastatin 80 mg/day, OD, month 3 (August 2018)): VA 20/200
- VA (visual acuity) ([2]; Patient #4, atorvastatin 80 mg/day, OS, month 0 (May 2018), baseline): VA 20/20
- VA (visual acuity) ([2]; Patient #4, atorvastatin 80 mg/day, OS, month 3 (August 2018)): VA 20/20
- VA (visual acuity) [2, 6]: VA 20/25
- VA (visual acuity) [2, 7]: VA 20/25
- Diagnosis ([3]; Patient #1, atorvastatin 20 to 80 mg/day from July 2013, OD, month 0 (July 2013), baseline): Intermediate AMD
- Diagnosis ([3]; Patient #1, atorvastatin 20 to 80 mg/day from July 2013, OS, month 0 (July 2013), baseline): Intermediate AMD
- Diagnosis ([3]; Patient #1, atorvastatin 20 to 80 mg/day, OD, month 60 (July 2018), ending diagnosis): Intermediate AMD
- Diagnosis ([3]; Patient #1, atorvastatin 20 to 80 mg/day, OS, month 60 (July 2018), ending diagnosis): Intermediate AMD
- Responder ([3]; Patient #1, atorvastatin 20 to 80 mg/day, month 60 (July 2018)): No
- Diagnosis ([3]; Patient #2, atorvastatin 80 mg/day from January 2013, OD, month 0 (January 2013), baseline): Intermediate AMD
- Diagnosis ([3]; Patient #2, atorvastatin 80 mg/day from January 2013, OS, month 0 (January 2013), baseline): Intermediate AMD
- Diagnosis ([3]; Patient #2, atorvastatin 80 mg/day, OD, month 66 (July 2018), ending diagnosis): Early AMD
- Diagnosis ([3]; Patient #2, atorvastatin 80 mg/day, OS, month 66 (July 2018), ending diagnosis): Early AMD
- Responder ([3]; Patient #2, atorvastatin 80 mg/day, month 66 (July 2018)): Yes
- Diagnosis ([3]; Patient #3, atorvastatin 80 mg/day from October 2016, OD, month 0 (October 2016), baseline): Late AMD (CNV)
- Diagnosis ([3]; Patient #3, atorvastatin 80 mg/day, OD, month 20 (June 2018), ending diagnosis): Late AMD (CNV)
- Responder ([3]; Patient #3, atorvastatin 80 mg/day, month 20 (June 2018)): No
- Diagnosis ([3]; Patient #4, atorvastatin 80 mg/day from May 2018, OD, month 0 (May 2018), baseline): Late AMD (GA)
- Diagnosis ([3]; Patient #4, atorvastatin 80 mg/day from May 2018, OS, month 0 (May 2018), baseline): Intermediate AMD
- Diagnosis ([3]; Patient #4, atorvastatin 80 mg/day, OD, month 4 (September 2018), ending diagnosis): Late AMD (GA)
- Diagnosis ([3]; Patient #4, atorvastatin 80 mg/day, OS, month 4 (September 2018), ending diagnosis): Intermediate AMD
- Responder ([3]; Patient #4, atorvastatin 80 mg/day, month 4 (September 2018)): No
- Diagnosis ([3]; Patient #5, atorvastatin 80 mg/day (suspended January 2015-February 2016), then 20 mg/day, pravastatin 20 mg/day from April 2018, OD, month 52 (June 2018), ending diagnosis): Intermediate AMD
- Diagnosis ([3]; Patient #5, atorvastatin 80 mg/day (suspended January 2015-February 2016), then 20 mg/day, pravastatin 20 mg/day from April 2018, OS, month 52 (June 2018), ending diagnosis): Intermediate AMD
- Responder ([3]; Patient #5, atorvastatin 80 mg/day (suspended January 2015-February 2016), then 20 mg/day, pravastatin 20 mg/day from April 2018, month 52 (June 2018)): No
- Diagnosis [3, 6]: Intermediate AMD
- Diagnosis [3, 7]: Intermediate AMD
- Diagnosis ([3]; Patient #6, atorvastatin 80 mg/day from November 2017, OD, month 0 (November 2017), baseline): Intermediate AMD
- Diagnosis ([3]; Patient #6, atorvastatin 80 mg/day from November 2017, OS, month 0 (November 2017), baseline): Intermediate AMD
- Diagnosis ([3]; Patient #6, atorvastatin 80 mg/day, OD, month 9 (August 2018), ending diagnosis): Intermediate AMD
- Diagnosis ([3]; Patient #6, atorvastatin 80 mg/day, OS, month 9 (August 2018), ending diagnosis): Intermediate AMD
- Responder ([3]; Patient #6, atorvastatin 80 mg/day, month 9 (August 2018)): Maybe
- Diagnosis ([3]; Patient #7, atorvastatin 10 to 20 mg/day from April 2016, OD, month 0 (April 2016), baseline): Intermediate AMD
- Diagnosis ([3]; Patient #7, atorvastatin 10 to 20 mg/day from April 2016, OS, month 0 (April 2016), baseline): Intermediate AMD
- Diagnosis ([3]; Patient #7, atorvastatin 10 to 20 mg/day, OD, month 27 (July 2018), ending diagnosis): Intermediate AMD
- Diagnosis ([3]; Patient #7, atorvastatin 10 to 20 mg/day, OS, month 27 (July 2018), ending diagnosis): Intermediate AMD
- Responder ([3]; Patient #7, atorvastatin 10 to 20 mg/day, month 27 (July 2018)): No
- Drusen resolution ([4]; Example 1: adult female, intermediate AMD, oral atorvastatin increasing to 80 mg per day over six months): eventual resolution of the drusen
- Drusen resolution (ophthalmic examination, fundus photography, OCT) ([4]; Example 2: adult person, intermediate AMD, oral atorvastatin 10 to 80 mg per day, month 15): substantially complete resolution of the drusen
- Average retinal thickness ([4]; left eye, August 2016 OCT): 193 µm
- Average total volume (retina) ([4]; left eye, August 2016 OCT): 8.2 mm^3
- Retinal thickness, maximum ([4]; left eye, August 2016 OCT): 291 µm
- Retinal thickness, minimum ([4]; left eye, August 2016 OCT): 191 µm
- Average retinal thickness ([4]; left eye, February 2016 OCT): 364 µm
- Average total volume (retina) ([4]; left eye, February 2016 OCT): 8.45 mm^3
- Retinal thickness, maximum ([4]; left eye, February 2016 OCT): 457 µm
- Retinal thickness, minimum ([4]; left eye, February 2016 OCT): 217 µm
- Average retinal thickness ([4]; right eye, August 2015 OCT): 179 µm
- Average total volume (retina) ([4]; right eye, August 2015 OCT): 8.49 mm^3
- Retinal thickness, maximum ([4]; right eye, August 2015 OCT): 461 µm
- Retinal thickness, minimum ([4]; right eye, August 2015 OCT): 176 µm
- Average retinal thickness ([4]; right eye, December 2015 OCT): 199 µm
- Average total volume (retina) ([4]; right eye, December 2015 OCT): 8.23 mm^3
- Retinal thickness, maximum ([4]; right eye, December 2015 OCT): 332 µm
- Retinal thickness, minimum ([4]; right eye, December 2015 OCT): 170 µm
- OCT retinal imaging finding ([4]; pravastatin 20 mg/day from April 2018, left eye): development of a PED
- OCT retinal imaging finding ([4]; pravastatin 20 mg/day from April 2018, right eye): increased drusen accumulation with possible increase in drusen size
- Drusen resolution ([4]; Patient #1, atorvastatin 20 to 80 mg/day, OU, month 59 (June 2018)): No indication of drusen resolution OU
- Decrease in retina volume ([4]; Patient #2, atorvastatin 80 mg/day, OD, month 35 (December 2015 vs August 2015)): volume of 0.26 mm^3
- Decrease in retina volume ([4]; Patient #2, atorvastatin 80 mg/day, OS, month 43 (August 2016 vs February 2016)): volume of 0.25 mm^3
- SDD resolution ([4]; Patient #3, atorvastatin 80 mg/day, OU, month 19 (May 2018)): No indication of SDD resolution OU
- Drusen resolution ([4]; Patient #4, atorvastatin 80 mg/day, OU, month 3 (August 2018)): No indication of drusen resolution OU
- Drusen resolution ([4]; Patient #5, atorvastatin 80 mg/day (suspended January 2015-February 2016), then 20 mg/day, pravastatin 20 mg/day from April 2018, OU, month 51 (April 2018)): No indication of drusen resolution OU
- Decrease in retina volume ([4]; Patient #6, atorvastatin 80 mg/day, OD, month 9 (August 2018)): volume of 0.09 mm^3
- Decrease in retina volume ([4]; Patient #6, atorvastatin 80 mg/day, OS, month 9 (August 2018)): volume of 0.1 mm^3
- Drusen resolution ([4]; Patient #6, atorvastatin 80 mg/day, OU, month 9 (August 2018)): Initial signs of drusen resolution OU
- Drusen resolution ([4]; Patient #7, atorvastatin 10 to 20 mg/day, OU, month 27 (July 2018)): No indication of drusen resolution OU
- Self-reported change in contrast sensitivity ([5]; Example 1: adult female, oral atorvastatin increasing to 80 mg per day over six months, no objective testing): improvement in contrast sensitivity
- Self-reported change in dark adaptation ([5]; Example 2: adult person, oral atorvastatin 10 to 80 mg per day for 23 months, month 7, confirmed at months 15 and 22, no objective testing): improvement in dark adaptation
